Active and inactive are the calls of the source. No cut-off for these calls is given here.
Legend:
MDA-MB-231 [1] = assay: Antiproliferative activity against human MDA-MB-231 cells after 48 hrs by MTT assay; assay type: functional, cell-based; details: MDA-MB-231, 48 h
MDA-MB-231 [2] = assay: Antiproliferative activity against human MDA-MB-231 cells after 72 hrs by MTT assay; assay type: functional, cell-based; details: MDA-MB-231, 72 h
Cannabinoid receptor 2 = Cannabinoid receptor 2 (Homo sapiens, UniProt P34972); assay: Displacement of [3H]CP55940 from human CB2 receptor transfected in HEK293 cells after 90 mins by liquid scintillation spectrophotometry; assay type: cell-based
Cannabinoid receptor 1 = Cannabinoid receptor 1 (Homo sapiens, UniProt P21554); assay: Displacement of [3H]CP55940 from human CB1 receptor transfected in HEK293 cells after 90 mins by liquid scintillation spectrophotometry; assay type: cell-based
MDA-MB-231 [3] = assay: Antiproliferative activity against human MDA-MB-231 cells at IC50 after 48 hrs by MTT assay in presence of SR144528; assay type: functional, cell-based
MDA-MB-468 = assay: Antiproliferative activity against human MDA-MB-468 cells after 48 hrs by MTT assay; assay type: functional, cell-based; details: MDA-MB-468, 48 h
Mus musculus [4] = assay: Toxicity in nude mouse xenografted with human MDA-MB-231 cells assessed as toxicity in lungs at 2 mg/kg, ip administered 3 times a week for 4 weeks; assay type: organism-based; set-up: dose 2 mg/kg, route intraperitoneal; details: in vivo, 672 h
MDA-MB-231 [5] = assay: Antiproliferative activity against human MDA-MB-231 cells at IC50 after 48 hrs by MTT assay in presence of SR141716; assay type: functional, cell-based
MDA-MB-231 [6] = assay: Antiproliferative activity against human MDA-MB-231 cells at IC50 after 48 hrs by MTT assay in presence of alpha-tocopherol; assay type: functional, cell-based
Mus musculus [7] = assay: Toxicity in nude mouse xenografted with human MDA-MB-231 cells assessed as toxicity in liver at 2 mg/kg, ip administered 3 times a week for 4 weeks; assay type: organism-based; set-up: dose 2 mg/kg, route intraperitoneal; details: in vivo, 672 h
MDA-MB-231 [8] = assay: Antiproliferative activity against human MDA-MB-231 cells at IC50 after 48 hrs by MTT assay in presence of CDI16020046; assay type: functional, cell-based
MDA-MB-231 [9] = assay: Antitumor activity against human MDA-MB-231 cells xenografted in nude mouse assessed as reduction in tumor weight at 2 mg/kg, ip administered 3 times a week for 4 weeks relative to control; assay type: functional, organism-based; set-up: dose 2 mg/kg
MDA-MB-231 [10] = assay: Antitumor activity against human MDA-MB-231 cells xenografted in nude mouse assessed as reduction in tumor growth at 2 mg/kg, ip administered 3 times a week for 4 weeks relative to control; assay type: functional, organism-based; set-up: dose 2 mg/kg
Mus musculus [11] = assay: Toxicity in nude mouse xenografted with human MDA-MB-231 cells assessed as toxicity in heart at 2 mg/kg, ip administered 3 times a week for 4 weeks; assay type: organism-based; set-up: dose 2 mg/kg, route intraperitoneal; details: in vivo, 672 h
HMEC = assay: Antiproliferative activity against HMEC at 2 to 30 uM after 48 hrs by MTT assay; assay type: cell-based; details: human
Mus musculus [12] = assay: Toxicity in nude mouse xenografted with human MDA-MB-231 cells assessed as toxicity in spleen at 2 mg/kg, ip administered 3 times a week for 4 weeks; assay type: organism-based; set-up: dose 2 mg/kg, route intraperitoneal; details: in vivo, 672 h
MDA-MB-231 [13] = assay: Induction of apoptosis in human MDA-MB-231 cells assessed as increase in active caspase-3 level at IC50 after 48 hrs by Western blotting analysis; assay type: functional, cell-based
MDA-MB-231 [14] = assay: Antitumor activity against human MDA-MB-231 cells xenografted in nude mouse assessed as reduction in tumor volume at 2 mg/kg, ip administered 3 times a week for 4 weeks relative to control; assay type: functional, organism-based; set-up: dose 2 mg/kg
[15] = Antiproliferative activity against human SUM159 cells after 48 hrs by MTT assay; assay type: functional, cell-based; details: SUM-159-PT
[16] = Antiproliferative activity against human SUM149 cells after 48 hrs by MTT assay; assay type: functional, cell-based; details: SUM149PT

Cannabinoid receptor 1, sequence (P21554 whole entry): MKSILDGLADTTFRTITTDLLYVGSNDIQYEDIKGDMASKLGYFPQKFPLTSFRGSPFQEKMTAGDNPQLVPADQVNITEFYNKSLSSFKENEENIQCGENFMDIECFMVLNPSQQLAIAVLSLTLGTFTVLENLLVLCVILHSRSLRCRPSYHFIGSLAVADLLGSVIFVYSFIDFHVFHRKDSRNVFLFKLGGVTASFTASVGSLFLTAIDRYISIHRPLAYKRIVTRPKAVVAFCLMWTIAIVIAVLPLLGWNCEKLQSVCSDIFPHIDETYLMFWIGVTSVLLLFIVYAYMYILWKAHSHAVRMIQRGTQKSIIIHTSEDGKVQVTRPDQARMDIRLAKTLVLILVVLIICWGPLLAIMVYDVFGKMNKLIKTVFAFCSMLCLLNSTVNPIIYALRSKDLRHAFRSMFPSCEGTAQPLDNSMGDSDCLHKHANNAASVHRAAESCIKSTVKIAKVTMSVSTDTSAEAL
Cannabinoid receptor 2, sequence (P34972 whole entry): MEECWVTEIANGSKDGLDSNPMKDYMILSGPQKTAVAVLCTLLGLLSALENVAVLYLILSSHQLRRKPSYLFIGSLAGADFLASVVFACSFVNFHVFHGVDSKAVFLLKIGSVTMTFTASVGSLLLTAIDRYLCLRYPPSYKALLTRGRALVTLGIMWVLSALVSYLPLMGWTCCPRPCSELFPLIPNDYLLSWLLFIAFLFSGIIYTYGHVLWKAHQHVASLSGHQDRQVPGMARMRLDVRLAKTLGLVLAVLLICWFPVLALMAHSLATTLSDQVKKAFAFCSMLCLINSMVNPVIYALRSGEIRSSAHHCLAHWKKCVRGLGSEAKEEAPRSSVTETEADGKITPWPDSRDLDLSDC

## CCCCCCC(C)(C)C1=CC(=O)C2=C(OC(C)(C)c3c[nH]nc32)C1=O
MDA-MB-231 [1]
  IC50: 8.2 µM

## CCCCCCC(C)(C)C1=CC(=O)C2=C(OC(C)(C)c3cn(C)nc32)C1=O
MDA-MB-231 [1]
  IC50: 5.8 µM

## CCCCCc1cc(O)c2c(c1)OC(C)(C)[C@@H]1CCC(C)=C[C@@H]21 [DRONABINOL]
MDA-MB-231 [2]
  IC50: 5 µM

## CCCCCCC(C)(C)C1=CC2=C(C(=O)C1=O)c1[nH]ncc1C(C)(C)O2
Cannabinoid receptor 2
  Ki: 0.398 µM
Cannabinoid receptor 1
  Ki: > 40 µM
MDA-MB-231 [1]
  IC50: 8.5 µM

## CCCCCCC(C)(C)C1=CC(=O)C2=C(OC(C)(C)c3cn(CC)nc32)C1=O
MDA-MB-231 [1]
  IC50: 2.5 µM

## CCCCCCC(C)(C)C1=CC2=C(C(=O)C1=O)c1nn(C)cc1C(C)(C)O2
Cannabinoid receptor 2
  Ki: 0.597 µM
Cannabinoid receptor 1
  Ki: > 40 µM
MDA-MB-231 [1]
  IC50: 5 µM

## CCCCCCC(C)(C)C1=CC2=C(C(=O)C1=O)c1c(cnn1CC)C(C)(C)O2
MDA-MB-231 [3]
  Activity: inactive
MDA-MB-468
  IC50: 17.3 µM
Mus musculus [4]
  Activity: Non-toxic
MDA-MB-231 [5]
  Activity: Active
Cannabinoid receptor 2
  Ki: 0.529 µM
MDA-MB-231 [6]
  Activity: inactive
Mus musculus [7]
  Activity: Non-toxic
MDA-MB-231 [8]
  Activity: Active
MDA-MB-231 [9]
  Activity: Active
MDA-MB-231 [10]
  Activity: Active
Mus musculus [11]
  Activity: Non-toxic
Cannabinoid receptor 1
  Ki: > 40 µM
HMEC
  Activity: Non-toxic
MDA-MB-231 [1]
  IC50: 2.8 µM
Mus musculus [12]
  Activity: Non-toxic
MDA-MB-231 [13]
  Activity: Active
MDA-MB-231 [14]
  Activity: Active
[15]
  IC50: 4.1 µM
[16]
  IC50: 4.6 µM
